Results on nine compounds are retold here after EP1844781A1 (priority 2006, dated 2007).

Where two headings read alike, the source gives them in different places.

Holding throughout (assay type): cell-based, Wistar rats
Assay [1] deals with uterine strips.
Assay [2] deals with uterine strips. The assay is described as follows: Effect of inhibitors on electrically-induced uterine contractions (field electrical stimulation).
The test system of assay [3] is uterine strips. The assay is described as follows: tissue or blood.
A further assay concerns myometrial strips. As to the kind of experiment: Simultaneous measurement of contractile force and [Ca2+]i (Fura-2). Particulars: veratridine 60 µM; myometrial fibers loaded with Fura-2; responding strips (10 of 21).
The test system of assay [4] is uterine strips. As to the kind of experiment: tissue or blood. The conditions noted are these: for minimal effective concentration: read-out: concentration at which rhythmic contractions appeared.
The mark [5] stands for this setting: cumulative concentrations 1 nM-30 µM, strips exposed for 90 min (late response) to 60 µM veratridine.

As for µ-conotoxin GIIIB, the “effect on veratridine-induced rhythmic contractions” value with uterine strips [1] is “did not modify”.

`O=C(NCC1CCCCN1)c1cc(OCC(F)(F)F)ccc1OCC(F)(F)F` (stereo not drawn) [flecainide]: the “effect on veratridine-induced rhythmic contractions” value with uterine strips [1] (setting [5]) was “did not modify”.

On to `COc1cc2nc(N3CCN(C(=O)c4ccco4)CC3)nc(N)c2cc1OC` [Prazosin, prazosin], for which the activity at 1 µM in the assay on uterine strips [2] (Rattus norvegicus, read-out: contractile area of electrically-induced uterine contractions, % of the previous contraction) was 92.3 ± 4%; with uterine strips [3] (Rattus norvegicus, 40 min, read-out: contractile area of spontaneous contractions, % of the previous contractile area), 108 ± 9.1%.

Consider `COc1ccc(C(=O)O[C@H]2CC[C@@]3(C)[C@@H]4CC[C@H]5[C@]6(O)C[C@H](O)[C@@]7(O)[C@@H](CN8C[C@@H](C)CC[C@H]8[C@@]7(C)O)[C@]6(O)C[C@@]53O[C@]24O)cc1OC` [veratridine], for which, in the assay on myometrial strips, the frequency of contractions came to 0.75 ± 0.09 min⁻¹ and the “mean amplitude of rhythmic contractions during a 10-min period” value is given as 8.48 ± 1.20 mN. Also, the minimal effective concentration in the assay on uterine strips [4] (Rattus norvegicus, […], non-pregnant rats, undetermined stage of the ovarian cycle) is at least 10 µM. In addition, the “concentration at which the maximal response was reached” value in the assay with uterine strips [4] (measured during a 60 min application, 1.9 or 1.1 mM Ca2+-containing solution) came out at 60 µM. For the same compound, in the assay on uterine strips [4] (veratridine 60 µM, continuous presence, 24 uterine strips from 12 animals), the “time the contractile response remained very regular and well maintained after addition” value is listed as “at least 12 h”.

Consider `CN1[C@@H]2CC[C@H]1C[C@@H](OC(=O)C(CO)c1ccccc1)C2` (stereo partly drawn) [Atropine, atropine], for which, in the assay with uterine strips [2], the “contractile area of electrically-induced uterine contractions, % of the previous contraction” value was determined as 30.3 ± 8.1%. For the same compound, in the assay on uterine strips [3], the “contractile area of spontaneous contractions, % of the previous contractile area” value stood at 26.7 ± 2.2% and the “effect on spontaneous uterine contractions” value is “abolished or almost abolished”.

On to `C=C(C=O)C[C@@H]1C[C@H](O)[C@]2(C)O[C@@H]3C[C@@H]4O[C@@H]5C[C@]6(C)O[C@]7(C)CC[C@@H]8O[C@@H]9C[C@]%10(C)O[C@@H]%11C(C)=CC(=O)O[C@H]%11C[C@H]%10O[C@H]9C[C@@H](C)[C@H]8O[C@H]7C[C@H]6O[C@H]5C/C=C\[C@H]4O[C@H]3C[C@H]2O1` [brevetoxin-B], for which, in the assay with uterine strips [4], the “concentration at which the maximal response was reached” value stood at 0.03 µM.

Turning to `CCOC(=O)C1=C[C@]2(CC)CCCN3CCc4c(n1c1ccccc41)[C@@H]32` [vinpocetine], the “effect on veratridine-induced rhythmic contractions” value in the assay on uterine strips [1] (setting [5]) was “did not modify”.

Regarding `CCN1C[C@]2(COC)[C@H](O)C[C@H](OC)[C@@]34[C@@H]5C[C@@]6(O)[C@H](OC(=O)c7ccccc7)[C@@H]5[C@@](OC(C)=O)([C@@H]([C@H](OC)[C@H]23)[C@@H]14)[C@@H](O)[C@@H]6OC` [aconitine], in the assay with uterine strips [4], the “concentration at which the maximal response was reached” value was determined as 100 µM and the minimal effective concentration is reported as at least 100 µM.

As for grayanotoxin, in the assay with uterine strips [4], the “concentration at which the maximal response was reached” value turned out to be 30 µM and the minimal effective concentration is at least 20 µM.
